How the values were obtained:
[1] = target: T1, human Adenosine A1 receptor (Homo sapiens, UniProt P30542); test: Adenosine receptor TR-FRET binding assay (CA200645 displacement), A1
T1 sequence (P30542 1-326): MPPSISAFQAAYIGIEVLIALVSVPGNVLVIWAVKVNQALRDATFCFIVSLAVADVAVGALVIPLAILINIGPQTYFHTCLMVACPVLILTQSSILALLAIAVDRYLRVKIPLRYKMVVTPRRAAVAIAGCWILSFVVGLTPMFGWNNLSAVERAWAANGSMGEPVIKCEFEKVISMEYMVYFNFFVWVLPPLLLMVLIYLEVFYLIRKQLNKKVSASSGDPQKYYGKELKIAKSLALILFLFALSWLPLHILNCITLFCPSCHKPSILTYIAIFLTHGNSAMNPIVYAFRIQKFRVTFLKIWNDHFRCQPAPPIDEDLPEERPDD
Procedure: All FRET binding experiments were conducted at room temperature in white 384-well plates, in assay binding buffer containing 1×LabMed (Cisbio, France), 100 μg/mL saponin, 1% DMSO and 0.02% pluronic acid. Binding of the fluorescently labelled Adenosine receptor antagonist XAC (CA200645, FRET acceptor) to terbium-labelled A1, A2a, A2b and A3 adenosine receptors (FRET donors) was detected by time-resolved FRET due to the close proximity of the donor and acceptor in a binding event. To investigate the ability of unlabelled test compounds to bind to Adenosine A1, A2a, A2b and A3 receptors, dose response curves were constructed that determined the ability of a range of concentrations to inhibit the binding of 30 nM CA200645 to the A2b receptor and 100 nM CA200645 to the A1, A2a, and A3 receptor.
Serial dilution (1:3 dilutions) of test compounds in neat DMSO and transfer of a 400 nL sample of test compound into the assay plate was carried out using the Mosquito (TTP Labtech, UK). The compound samples were incubated for 2 hours at room temperature with a fixed concentration of CA200645 defined for each receptor (see above) and CHO cell membranes containing the human Adenosine A1 (0.5 μg/well), A2a (0.3 μg/well), A2b (1 μg/well) or A3 (1 μg/well) receptor in 40 μL of assay buffer. Total and non-specific binding of CA200645 was determined in the absence and presence of 10 μM XAC, respectively. Following 2 hours incubation, the level of CA200645 binding was detected on a Pherastar FSX (BMG Labtech, Germany) using standard TR-FRET settings. The terbium donor was excited with three laser flashes at a wavelength of 337 nm, and donor and acceptor emission was detected at 620 nm and 665 nm wavelengths, respectively. FRET ratios were obtained by multiplying the acceptor/donor ratio value by 10,000. Specific binding was determined by subtracting the non-specific binding FRET ratio from the total binding FRET ratio. Compound IC50 curves were analysed using GraphPad Prism 7.0 (GraphPad, USA) and Ki affinity values were determined from the obtained IC50 values using the method of Cheng and Prusoff.

human PBMCs = test: CD3/CD28 stimulated IL-2 release NECA reversal assay in human PBMCs; assay type: cell-based; conditions: PBMC, CD3/CD28 antibody stimulated, 1 uM NECA, 24 hours, IL-2 in culture supernatant;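 further: dose-response as % inhibition where 100% equals no-NECA control wells with CD3/CD28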
Procedure, shortened: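 PBMCs from citrated donor blood, 50,000 cells/well on plate-bound CD3 antibody (1 ug/ml), with 1 ug/ml CD28 antibody, 1 uM NECA and antagonist at 0.003-10 μM final. After 24 h at 37° C, supernatant IL-2 was measured by MSD immunoassay.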

[2] = target: T2, human Adenosine A2b receptor (Homo sapiens, UniProt P29275); test: Adenosine receptor TR-FRET binding assay (CA200645 displacement), A2b; conditions: 30 nM CA200645, CHO cell membranes, 2 hours at room temperature
T2 construct: expressed in transfected cells; host or cells: CHO cell membranes
T2 sequence (P29275 1-332): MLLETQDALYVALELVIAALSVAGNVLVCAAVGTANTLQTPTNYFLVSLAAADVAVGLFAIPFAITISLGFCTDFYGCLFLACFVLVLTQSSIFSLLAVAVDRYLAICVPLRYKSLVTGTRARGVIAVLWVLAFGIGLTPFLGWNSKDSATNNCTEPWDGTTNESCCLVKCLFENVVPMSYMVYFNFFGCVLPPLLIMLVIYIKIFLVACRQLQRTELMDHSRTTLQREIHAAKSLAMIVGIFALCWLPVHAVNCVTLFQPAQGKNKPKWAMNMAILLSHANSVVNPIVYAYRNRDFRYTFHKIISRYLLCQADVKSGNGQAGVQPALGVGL

[3] = target: T3, human Adenosine A2a receptor (Homo sapiens, UniProt P29274); test: Adenosine receptor TR-FRET binding assay (CA200645 displacement), A2a; conditions: 100 nM CA200645, CHO cell membranes, 2 hours at room temperature
T3 construct: expressed in transfected cells; host or cells: CHO cell membranes

[4] = system: CD8+ T cells in human whole blood; test: Measurement of pCREB in CD8+ T cells in human whole blood; assay type: cell-based; conditions: T-cell, 1 h; heparinised human whole blood, rolipram, 3 μM NECA, 60 min, phospho-CREB in CD8+ T cells by FACS
Procedure: Heparinised human whole blood was pre-incubated at 37° C. with serial dilutions of A2a antagonists for 20 min. and the phosphodiesterase inhibitor rolipram to amplify the pCREB response. The adenosine receptor agonist NECA is then added at a final concentration of 3 μM and following a 60 min incubation the blood is fixed and red blood cells lysed. White blood cells are isolated, permeabilized and stained with directly conjugated fluorescent antibodies to phospho-CREB (Alexa Fluor 488) and CD8 (Alexa Fluor 647) and the level of phospho-CREB in CD8+ T cells is measured by FACS using a BD Accuri C6 Flow Cytometer.

[5] = target: T4, human Adenosine A3 receptor (Homo sapiens, UniProt P0DMS8); test: Adenosine receptor TR-FRET binding assay (CA200645 displacement), A3
T4 sequence (P0DMS8 1-318): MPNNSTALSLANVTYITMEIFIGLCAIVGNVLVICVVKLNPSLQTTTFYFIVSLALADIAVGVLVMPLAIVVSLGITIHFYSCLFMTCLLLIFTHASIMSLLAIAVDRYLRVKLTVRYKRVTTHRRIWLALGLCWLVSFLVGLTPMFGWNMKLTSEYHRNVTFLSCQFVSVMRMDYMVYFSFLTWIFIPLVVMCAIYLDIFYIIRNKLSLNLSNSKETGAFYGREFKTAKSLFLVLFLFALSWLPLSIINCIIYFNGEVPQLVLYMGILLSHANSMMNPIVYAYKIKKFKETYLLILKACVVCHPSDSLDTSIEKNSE

T3 sequence (P29274 whole entry): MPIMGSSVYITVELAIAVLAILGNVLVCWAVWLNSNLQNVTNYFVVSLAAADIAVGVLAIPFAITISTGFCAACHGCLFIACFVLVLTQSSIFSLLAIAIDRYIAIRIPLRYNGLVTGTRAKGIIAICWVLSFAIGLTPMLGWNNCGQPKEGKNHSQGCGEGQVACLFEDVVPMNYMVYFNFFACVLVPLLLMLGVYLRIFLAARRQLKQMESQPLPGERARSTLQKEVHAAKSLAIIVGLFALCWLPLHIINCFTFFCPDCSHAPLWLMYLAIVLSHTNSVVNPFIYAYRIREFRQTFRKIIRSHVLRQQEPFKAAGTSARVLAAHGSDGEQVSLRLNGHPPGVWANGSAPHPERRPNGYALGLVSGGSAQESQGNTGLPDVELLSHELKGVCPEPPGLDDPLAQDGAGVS

Compound	Ki [1]	Ki [2]	Ki [3]	IC50 [4]	Ki [5]	IC50 (human PBMCs)
Cc1cc(-c2c(-c3cccc(C#N)c3C)nn3ccc(C(=O)N[C@H](C)C(C)(C)O)nc23)cc(C)n1 [Example 104, 2-(3-Cyano-2-methyl-phenyl)-3-(2,6-dimethyl-4-pyridyl)-N-[(1R)-2-hydroxy-1,2-dimethyl-propyl]pyrazolo[1,5-a]pyrimidine-5-carboxamide]	735 nM	330 nM	0.9 nM	190 nM	> 1000 nM	10 nM
Cc1cc(-c2c(-c3cccc(C#N)c3)nn3ccc(C(=O)NCCC(C)(C)N)nc23)cc(C)n1 [Example 96, N-(3-Amino-3-methyl-butyl)-2-(3-cyanophenyl)-3-(2,6-dimethyl-4-pyridyl)pyrazolo[1,5-a]pyrimidine-5-carboxamide]	143 nM	7 nM	0.5 nM	360 nM	> 1000 nM	10 nM
Cc1cc(-c2c(-c3cccc(C#N)c3)nn3ccc(C(=O)NC45CC(O)(C4)C5)nc23)cc(C)n1 [Example 92.2]	324 nM	25 nM	1.6 nM	350 nM	> 1000 nM	17 nM
Cc1cc(-c2c(-c3cccc(C#N)c3)nn3ccc(N4CCOC(CCN(C)C)C4)nc23)cc(Cl)n1 (stereo not drawn) [Example 2.21]	178 nM	19 nM	4.6 nM	1240 nM	> 1000 nM	31 nM
Cc1cc(-c2c(-c3cccc(C#N)c3)nn3ccc(C(=O)NCC4(C)CCCNC4)nc23)cc(Cl)n1 (stereo not drawn) [Example 7.18, 3-(2-Chloro-6-methyl-4-pyridyl)-2-(3-cyanophenyl)-N-[(3-methyl-3-piperidyl)methyl]pyrazolo[1,5-a]pyrimidine-5-carboxamide]	20 nM	14 nM	1 nM	470 nM	> 1000 nM	19 nM
Cc1cc(-c2c(-c3cccc(C#N)c3)nn3ccc(N/C(=N\C#N)NC(C)C)nc23)cc(Cl)n1 [Example 32.1, 1-[3-(2-Chloro-6-methyl-4-pyridyl)-2-(3-cyanophenyl)pyrazolo[1,5-a]pyrimidin-5-yl]-2-cyano-3-isopropyl-guanidine]	10 nM	1 nM	0.2 nM	1180 nM	115 nM	9 nM
Cc1cc(-c2c(-c3cccc(C#N)c3)nn3ccc(C(=O)N[C@H]4CNC[C@H]4O)nc23)cc(Cl)n1 [Example 7.2, 3-(2-Chloro-6-methyl-4-pyridyl)-2-(3-cyanophenyl)-N-[cis-(3S,4R)-4-hydroxypyrrolidin-3-yl]pyrazolo[1,5-a]pyrimidine-5-carboxamide]	458 nM	3 nM	2.6 nM	1070 nM	> 1000 nM	70 nM
Cc1cc(-c2c(-c3cccc(C#N)c3)nn3ccc(C(=O)NCC(C)(C)O)nc23)ccn1 [Example 12.2, 2-(3-Cyanophenyl)-N-(2-hydroxy-2-methyl-propyl)-3-(2-methyl-4-pyridyl)pyrazolo[1,5-a]pyrimidine-5-carboxamide]	5 nM	21 nM	2.9 nM	520 nM	56 nM	22 nM
Cc1cc(-c2c(-c3cccc(C#N)c3)nn3ccc(C(=O)NCC4(O)CC4)nc23)cc(Cl)n1 [Example 6.2, 3-(2-Chloro-6-methyl-4-pyridyl)-2-(3-cyanophenyl)-N-[(1-hydroxycyclopropyl)methyl]pyrazolo[1,5-a]pyrimidine-5-carboxamide]	122 nM	10 nM	0.3 nM	830 nM	2310 nM	8 nM
Cc1cc(-c2c(-c3cccc(C#N)c3)nn3ccc(N[C@@H]4CCCNC4)nc23)cc(Cl)n1 [Example 4.2]	32 nM	34 nM	1.2 nM	2030 nM	> 1000 nM	54 nM

The next lines start with results.

Ki [1]	Ki [2]	Ki [3]	IC50 [4]	Ki [5]	Compound	IC50 (human PBMCs)
79 nM	13 nM	1.7 nM	150 nM	> 1000 nM	Cc1cc(-c2c(-c3cccc(C#N)c3)nn3ccc(NC(=O)CC(C)(C)O)nc23)cc(C)n1 [Example 94.4, N-[2-(3-Cyanophenyl)-3-(2,6-dimethyl-4-pyridyl)pyrazolo[1,5-a]pyrimidin-5-yl]-3-hydroxy-3-methyl-butanamide]	14 nM
99 nM	14 nM	1.8 nM	750 nM	> 1000 nM	CC(=O)Nc1ccn2nc(-c3cccc(C#N)c3)c(-c3cc(C)nc(Cl)c3)c2n1 [Example 94.1, N-[3-(2-Chloro-6-methyl-4-pyridyl)-2-(3-cyanophenyl)pyrazolo[1,5-a]pyrimidin-5-yl]acetamide]	26 nM
147 nM	143 nM	1.3 nM	1010 nM	> 1000 nM	COc1cc(-c2c(-c3cccc(C#N)c3)nn3ccc(NCC(C)(C)O)nc23)cc(C)n1 [Example 23.1]	83 nM
87 nM	9 nM	0.4 nM	360 nM	655 nM	CC(=O)NC(C)(C)CNC(=O)c1ccn2nc(-c3cccc(C#N)c3)c(-c3cc(C)nc(Cl)c3)c2n1 [Example 98, N-(2-Acetamido-2-methyl-propyl)-3-(2-chloro-6-methyl-4-pyridyl)-2-(3-cyanophenyl)pyrazolo[1,5-a]pyrimidine-5-carboxamide]	3 nM
124 nM	3 nM	1 nM	1720 nM	> 1000 nM	Cc1cc(-c2c(-c3cccc(C#N)c3)nn3ccc(NC(=O)C(C)(C)O)nc23)cc(Cl)n1 [Example 94, N-[3-(2-Chloro-6-methyl-4-pyridyl)-2-(3-cyanophenyl)pyrazolo[1,5-a]pyrimidin-5-yl]-2-hydroxy-2-methyl-propanamide]	27 nM
896 nM	239 nM	2 nM	920 nM	> 1000 nM	Cc1cc(-c2c(-c3cccc(C#N)c3)nn3ccc(N[C@@H](C)C(C)(C)O)nc23)cc(Cl)n1 [Example 2.15]	59 nM
145 nM	20 nM	3.7 nM	590 nM	> 1000 nM	Cc1cc(-c2c(-c3cccc(C#N)c3)nn3ccc(NC(=O)C(C)(C)O)nc23)cc(C)n1 [Example 94.5, N-[2-(3-cyanophenyl)-3-(2,6-dimethyl-4-pyridyl)pyrazolo[1,5-a]pyrimidin-5-yl]-2-hydroxy-2-methyl-propanamide]	16 nM
192 nM	10 nM	2.6 nM	1870 nM	2430 nM	Cc1cc(-c2c(-c3cccc(C#N)c3)nn3ccc(N[C@H]4C[C@H](O)C4)nc23)cc(Cl)n1 [Example 2.18]	46 nM
31 nM	19 nM	1.4 nM	70 nM	> 1000 nM	Cc1cc(-c2c(-c3cccc(C#N)c3)nn3ccc(NCCC(C)(C)O)nc23)cc(Cl)n1 [Example 2.9]	19 nM

From patent publication US20230203041A1, “ANTAGONISTS OF THE ADENOSINE A2A RECEPTOR” (AdoRx Therapeutics Limited, priority 2020, published 2023)
